Laboratory results: patent US7608411B2, “Prostaglandin receptor EP1” (Ono Pharmaceutical Co., Ltd., priority 2001, dated 2009)
Substitutions are numbered along the chain they refer to.

Assays:
[1] = biological target: T1, human EP1 receptor of the present invention (Homo sapiens, UniProt P34995); test: Measurement of intracellular Ca2+ concentration in cells expressing human EP1 receptor of the present invention; format: cell-based; settings: Fura2-AM fluorescence
T1 construct: The cDNA insert was cut off from pT7BluehEP1 by EcoR1 digestion, and inserted into EcoR1 site of expression vector pdKCR-dhfr; expressed in transfected cells; A1 used their membrane fraction, A3 used whole cells
T1 sequence (P34995 1-402): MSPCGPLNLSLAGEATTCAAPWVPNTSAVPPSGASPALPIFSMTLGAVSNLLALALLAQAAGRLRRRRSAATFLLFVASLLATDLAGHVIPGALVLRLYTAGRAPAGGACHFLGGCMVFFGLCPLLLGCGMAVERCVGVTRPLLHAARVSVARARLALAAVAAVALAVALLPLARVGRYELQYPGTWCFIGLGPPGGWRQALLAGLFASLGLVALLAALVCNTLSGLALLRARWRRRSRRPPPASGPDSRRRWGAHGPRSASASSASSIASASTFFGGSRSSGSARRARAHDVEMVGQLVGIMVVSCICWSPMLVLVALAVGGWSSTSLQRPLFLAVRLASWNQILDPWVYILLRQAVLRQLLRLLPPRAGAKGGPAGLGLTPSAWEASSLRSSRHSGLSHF
Procedure: (§1) The cells were cultured in 500 cm^2 treys to reach confluence, washed with PBS(−), and peeled off by pipeting with PBS(−) on ice. After centrifugation at 800 rpm for 3 minutes, the cell pellet was suspended in medium A (15 ml) and incubated at 37° C. for 50 minutes followed by at room temperature for 10 minutes. After re-centrifugation the pellet was suspended in medium B (1-2×10^6/ml) and used for experiments. In the case that cell suspension contains Fura2-AM (Dojin), the operations were shielded the light by aluminum foil. Stirring the cell suspensions (400 μl) at 600 rpm, the changes of intracellular Ca^2+ concentration were measured by monitoring the changes of fluorescence intensity at both 340 nm and 380 nm and the ratio thereof, using CAM-220 Spectrofluorometer (Nihon Bunko Kogyo).
(§2) Medium A: • α-MEM containing fura2-AM (5 μM)), indomethacin (10 μM), HEPES-NaOH (pH7.4, 10 mM) and 10% FCS,
(§3) Medium B: • α-MEM containing indomethacin (1 μM), HEPES-NaOH (pH7.4, 10 mM) and 0.1% BSA.
(§4) The changes in intracellular Ca^2+ concentration using the cells expressing human EP1 receptor of the present invention and the cells expressing human EP1 receptor described in Japanese Patent No. 3,090,472 were shown in FIG. 3. In FIG. 3, “reference” means the result obtained by using the cells expressing human EP1 receptor described in Japanese Patent No. 3,090,472.

[2] = biological target: T2, human EP1 receptor described in Japanese Patent No. 3,090,472 (Homo sapiens, UniProt P34995, A71T/L230H); test: Measurement of intracellular Ca2+ concentration in cells expressing human EP1 receptor described in Japanese Patent No. 3,090,472; format: cell-based; settings: cells expressing human EP1 receptor of Japanese Patent No. 3,090,472 (reference); Fura2-AM fluorescence
T2 construct: expressed in transfected cells; host or cells: cells expressing the receptor of JP 3,090,472
T2 sequence (P34995 1-402 A71T/L230H): T1 sequence (P34995 1-402) with A71T, L230H
Procedure: as §1, §2, §3, §4

[3] = biological target: T1, human EP1 receptor of the present invention; test: Binding assay of [3H]-PGE2 with membrane fraction of CHO cells expressing human EP1 receptor of the present invention; settings: nonspecific binding with 10 μM PGE2
Procedure: 1) Gene Transfection into CHO Cells and Isolation of Clones Expressing Human EP1 Receptor
The cDNA insert was cut off from pT7BluehEP1 by EcoR1 digestion, and inserted into EcoR1 site of expression vector pdKCR-dhfr in the proper orientation. Approximately 25-50 ug of expression plasmid was digested completely with proper restriction enzymes (SalI, SacII etc.), purified by Phenol/CIAA extraction, CIAA extraction and ethanol precipitation, and dissolved in 50 μl of sterilized water. CHO-dhfr(−) cells used as host were suspended in 1.0-1.5×10^6 cells/0.8 ml of PBSuc buffer (sucrose 272 mM, K^+PO4^2− buffer (7 mM, pH7.4) and MgCl2 (1 mM)). […]
Reaction mixtures (200 μl) containing the membrane fraction, which was prepared by the above method and contains human EP1 receptor, and various concentrations of [3H]-PGE2 were incubated at room temperature for a certain time, separated by rapid filtration using Cell Harvester (Brandel). […] Residual [3H]-PGE2 bound to the filter (total binding) was quantitated by liquid scintillation counter. Nonspecific binding was quantitated in a similar manner in the presence of 10 μM of PGE2. […]
The specific binding thus obtained was analyzed by Scatchard plots, an equilibrium dissociation constant (Kd; nM) and a maximum number of specific binding sites (Bmax; fmol/mg protein) were determined. […]

[4] = biological target: T2, human EP1 receptor described in Japanese Patent No. 3,090,472; test: Binding assay of [3H]-PGE2 with cells expressing human EP1 receptor described in Japanese Patent No. 3,090,472; settings: cells expressing human EP1 receptor of Japanese Patent No. 3,090,472 (reference)
Procedure: Reaction mixtures (200 μl) containing the membrane fraction, which was prepared by the above method and contains human EP1 receptor, and various concentrations of [3H]-PGE2 were incubated at room temperature for a certain time, separated by rapid filtration using Cell Harvester (Brandel). The membrane fraction was recovered on glass filter and washed several times with the buffer cooled on ice (1-2 ml/wash). Residual [3H]-PGE2 bound to the filter (total binding) was quantitated by liquid scintillation counter. Nonspecific binding was quantitated in a similar manner in the presence of 10 μM of PGE2. Specific binding was defined as the difference between total binding and nonspecific binding.
The specific binding thus obtained was analyzed by Scatchard plots, an equilibrium dissociation constant (Kd; nM) and a maximum number of specific binding sites (Bmax; fmol/mg protein) were determined. The result obtained using the cells expressing human EP1 of the present invention was shown in FIG. 1, and the result obtained using the cells expressing human EP1 described in Japanese Patent No. 3,090,472 in FIG. 2, respectively.

Structure (SMILES)	PGE2 dependent elevation of intracellular Ca2+ concentration [1]	PGE2 dependent elevation of intracellular Ca2+ concentration [2]	specific binding of [3H]-PGE2 to the receptor [3]	specific binding of [3H]-PGE2 to the receptor [4]
CCCCC[C@H](O)/C=C/[C@H]1[C@H](O)CC(=O)[C@@H]1C/C=C\CCCC(=O)O [PGE2, prostaglandin E2]	detected	not detected at all		
CCCCC[C@H](O)/C=C/[C@H]1[C@H](O)CC(=O)[C@@H]1C/C=C\CCCC(=O)O [[^3H]-PGE2]			extremely high specific binding	detected
